We go through eleven compounds from patent US8039466B2, “5-hydroxymethyl-oxazolidin-2-one antibacterials” (Actelion Pharmaceutical Ltd., priority 2006, dated 2011).

Molecules are shown by their SMILES. In brackets after ≈: the same amount, converted by molar mass. Where two headings read alike, the source gives them in different places.

Holding throughout (assay): MIC by microdilution in cation-adjusted Mueller-Hinton Broth (NCCLS)
What all share (type): cell-based
In general terms: In broth dilution the organism is exposed to a series of concentrations in liquid medium.

One experiment concerns M. catarrhalis A894. As to conditions: Moraxella catarrhalis, pH of test medium 7.2-7.3. As to the method: (§1) These assays have been performed following the description given in “Methods for dilution Antimicrobial Susceptibility Tests for Bacteria that Grow Aerobically, 4th ed.; Approved standard: NCCLS Document M7-A4; National Committee for Clinical Laboratory Standards Villanova, Pa., USA, 1997”. Minimal inhibitory concentrations (MICs; mg/l) were determined in cation-adjusted Mueller-Hinton Broth (BBL) by a microdilution method following NCCLS guidelines (National Committee for Clinical Laboratory Standards. Methods for Dilution Antimicrobial Susceptibility). The pH of the test medium was 7.2-7.3. All the above Examples were tested against several Gram positive and Gram negative bacteria.

The next experiment has as its system S. Pneumoniae 49619. The following applies: Streptococcus pneumoniae. As to the method:
as §1

The subject of the next experiment is S. aureus A798. The following applies: Staphylococcus aureus. The method, then: as §1
Where [1] appears, read: pH of test medium 7.2-7.3, read-out: MIC S. Pneumoniae 49619.
Where [2] appears, read: A798, pH of test medium 7.2-7.3, read-out: MIC S. aureus A798.

Usually MIC stands for the least concentration at which growth counts as inhibited. Take `O=C(O)c1cn(C2CC2)c2c3c(c(F)cc2c1=O)N1CCC(O)(COc2ccc(N4C[C@H](CO)OC4=O)cc2F)C[C@H]1CO3` (mixture of isomers) [Example 6, (6aS,8RS)-4-cyclopropyl-11-fluoro-8-[2-fluoro-4-((R)-5-hydroxymethyl-2-oxo-oxazolidin-3-yl)-phenoxymethyl]-8-hydroxy-1-oxo-1,4,6,6a,7,8,9,10-octahydro-5-oxa-4,10a-diaza-chrysene-2-carboxylic acid]: the minimum inhibitory concentration (MIC) against M. catarrhalis A894 worked out at 0.5 µg/mL; with S. Pneumoniae 49619 (setting [1]), 0.25 µg/mL; in the experiment on S. aureus A798 (setting [2]), 0.5 µg/mL. Turning to `O=C(O)c1cn(C2CC2)c2c3c(c(F)cc2c1=O)N1CCC(O)(COc2ccc(N4C[C@H](CO)OC4=O)cc2F)C[C@@H]1CO3` (mixture of isomers) [Example 7, (6aR,8RS)-4-cyclopropyl-11-fluoro-8-[2-fluoro-4-((R)-5-hydroxymethyl-2-oxo-oxazolidin-3-yl)-phenoxymethyl]-8-hydroxy-1-oxo-1,4,6,6a,7,8,9,10-octahydro-5-oxa-4,10a-diaza-chrysene-2-carboxylic acid], the MIC in the experiment with S. Pneumoniae 49619 (setting [1]) amounted to 0.25 µg/mL.

With `O=C(O)c1cn(C2CC2)c2c3c(c(F)cc2c1=O)N1C[C@](O)(COc2ccc(N4C[C@H](CO)OC4=O)cc2F)C[C@H]1CO3` [Example 1, (13S,16S)-1-cyclopropyl-7-fluoro-16-[2-fluoro-4-((R)-5-hydroxymethyl-2-oxo-oxazolidin-3-yl)-phenoxymethyl]-16-hydroxy-4-oxo-1,4,13,15,16,17-hexahydro-12H-11-oxa-1,14-diaza-cyclopenta[a]phenanthrene-3-carboxylic acid], the minimal inhibitory concentration (MIC) with S. Pneumoniae 49619 (setting [1]) was no more than 0.063 µg/mL. With `C[C@@H](N)C(=O)OC[C@H]1CN(c2ccc(OC[C@]3(O)C[C@H]4COc5c(c(F)cc6c(=O)c(C(=O)O)cn(C7CC7)c56)N4C3)c(F)c2)C(=O)O1` [Example 2, (13S,16S)-16-{4-[(R)-5-((R)-2-amino-propionyloxymethyl)-2-oxo-oxazolidin-3-yl]-2-fluoro-phenoxymethyl}-1-cyclopropyl-7-fluoro-16-hydroxy-4-oxo-1,4,13,15,16,17-hexahydro-12H-11-oxa-1,14-diaza-cyclopenta[a]phenanthrene-3-carboxylic acid], the minimal inhibitory concentration (MIC) in the experiment on S. Pneumoniae 49619 (setting [1]) stood at 0.125 µg/mL (≈ 0.186 µM). `CCn1cc(C(=O)O)c(=O)c2cc(F)c3c(c21)OC[C@@H]1C[C@@](O)(COc2ccc(N4C[C@H](CO)OC4=O)cc2F)CN31` [Example 3, (13S,16S)-1-ethyl-7-fluoro-16-[2-fluoro-4-((R)-5-hydroxymethyl-2-oxo-oxazolidin-3-yl)-phenoxymethyl]-16-hydroxy-4-oxo-1,4,13,15,16,17-hexahydro-12H-11-oxa-1,14-diaza-cyclopenta[a]phenanthrene-3-carboxylic acid]: the minimum inhibitory concentration (MIC) in the experiment with M. catarrhalis A894 came out at 0.125 µg/mL (≈ 0.213 µM); in the experiment on S. Pneumoniae 49619 (setting [1]), 0.25 µg/mL (≈ 0.426 µM); in the experiment with S. aureus A798 (setting [2]) it was 0.5 µg/mL (≈ 0.851 µM). As to `O=C(O)c1cn(C2CC2)c2c3c(c(F)cc2c1=O)N1C[C@H](COc2ccc(N4C[C@H](CO)OC4=O)cc2F)C[C@H]1CO3` [Example 4, (13S,16R)-1-cyclopropyl-7-fluoro-16-[2-fluoro-4-((R)-5-hydroxymethyl-2-oxo-oxazolidin-3-yl)-phenoxymethyl]-4-oxo-1,4,13,15,16,17-hexahydro-12H-11-oxa-1,14-diaza-cyclopenta[a]phenanthrene-3-carboxylic acid], the MIC with S. Pneumoniae 49619 (setting [1]) was 0.25 µg/mL (≈ 0.428 µM). For the compound `O=C(O)c1cn(C2CC2)c2c3c(c(F)cc2c1=O)N1C[C@@H](COc2ccc(N4C[C@H](CO)OC4=O)cc2F)C[C@H]1CO3` [Example 5, (13S,16S)-1-cyclopropyl-7-fluoro-16-[2-fluoro-4-((R)-5-hydroxymethyl-2-oxo-oxazolidin-3-yl)-phenoxymethyl]-4-oxo-1,4,13,15,16,17-hexahydro-12H-11-oxa-1,14-diaza-cyclopenta[a]phenanthrene-3-carboxylic acid], the MIC in the experiment with S. Pneumoniae 49619 (setting [1]) stood at 0.25 µg/mL (≈ 0.428 µM).

Take `O=C(O)c1cn(C2CC2)c2c3c(c(F)cc2c1=O)N1C[C@@](COc2ccc(N4C[C@H](CO)OC4=O)cc2F)(OP(=O)(O)O)C[C@H]1CO3` [Example 8, (13S,16S)-1-cyclopropyl-7-fluoro-16-[2-fluoro-4-((R)-5-hydroxymethyl-2-oxo-oxazolidin-3-yl)-phenoxymethyl]-4-oxo-16-phosphonooxy-1,4,13,15,16,17-hexahydro-12H-11-oxa-1,14-diaza-cyclopenta[a]phenanthrene-3-carboxylic acid]: the minimal inhibitory concentration (MIC) with S. aureus A798 (A798, in the presence of human alkaline phosphatase, read-out: MIC against S. aureus A798) is 0.25 µg/mL; in the experiment on S. aureus A798 (A798, phosphatase absent, read-out: MIC against S. aureus A798) it was 4 µg/mL (≈ 5.89 µM). Regarding `O=C(O)c1c[nH]c2c3c(c(F)cc2c1=O)N1C[C@](O)(COc2ccc(N4C[C@H](CO)OC4=O)cc2F)C[C@H]1CO3` [Example 9, (13S,16S)-7-fluoro-16-[2-fluoro-4-((R)-5-hydroxymethyl-2-oxo-oxazolidin-3-yl)-phenoxymethyl]-16-hydroxy-4-oxo-1,4,13,15,16,17-hexahydro-12H-11-oxa-1,14-diaza-cyclopenta[a]phenanthrene-3-carboxylic acid], the MIC with S. Pneumoniae 49619 (setting [1]) amounted to 0.25 µg/mL (≈ 0.447 µM). Take `C[C@H](N)C(=O)OC[C@H]1CN(c2ccc(OC[C@]3(O)C[C@H]4COc5c(c(F)cc6c(=O)c(C(=O)O)cn(C7CC7)c56)N4C3)c(F)c2)C(=O)O1.Cl` [Example 11, (13S,16S)-16-{4-[(R)-5-((S)-2-amino-propionyloxymethyl)-2-oxo-oxazolidin-3-yl]-2-fluoro-phenoxymethyl}-1-cyclopropyl-7-fluoro-16-hydroxy-4-oxo-1,4,13,15,16,17-hexahydro-12H-11-oxa-1,14-diaza-cyclopenta[a]phenanthrene-3-carboxylic acid hydrochloride]: the MIC in the experiment with S. Pneumoniae 49619 (in the absence of human serum, read-out: MIC against S. Pneumoniae 49619) is no more than 0.063 µg/mL. As to `O=C(O)c1cn(C2CC2)c2c3c(c(F)cc2c1=O)N1C[C@](O)(COc2ccc(N4C[C@H](COC(=O)C5CCNCC5)OC4=O)cc2F)C[C@H]1CO3` [Example 12, (13S,16S)-1-cyclopropyl-7-fluoro-16-{2-fluoro-4-[(R)-2-oxo-5-(piperidine-4-carbonyloxymethyl)-oxazolidin-3-yl]-phenoxymethyl}-16-hydroxy-4-oxo-1,4,13,15,16,17-hexahydro-12H-11-oxa-1,14-diaza-cyclopenta[a]phenanthrene-3-carboxylic acid], the minimal inhibitory concentration (MIC) in the experiment with S. aureus A798 (A798, human serum absent, read-out: MIC against S. aureus A798) was 8 µg/mL (≈ 11.3 µM); in the experiment on S. aureus A798 (A798, in the presence of human serum, read-out: MIC against S. aureus A798) it was 2 µg/mL.
